Measured values: US20240116946A1 (Gilead Sciences, Inc., priority 2022, published 2024)
pEC50, pIC50: −log10 of the molar value. Like-named read-outs stand apart in the source and are kept apart here.

Tests used:
SARS-CoV-2-NLuc = test: microbe, parasite or virus in culture; type: cell-based, SARS Coronavirus 2
[1] = biological target: recombinant SARS-CoV-2 Main protease (Mpro) (Severe acute respiratory syndrome coronavirus 2 (2019-nCoV) (SARS-CoV-2), UniProt P0DTD1); test: Cov Mpro Biochemical IC50 Assay; conditions: read-out: MPro IC50
[2] = Severe acute respiratory syndrome coronavirus, 48 h; read-out: MPro EC50
[3] = recombinant SARS-CoV-2 Mpro 7.5 nM, fluorogenic peptide substrate 40 μM
[4] = recombinant SARS-CoV-2 Mpro, fluorogenic peptide substrate
[5] = Severe acute respiratory syndrome coronavirus, 48 h, read-out: MPro EC50

| SMILES | pEC50 (SARS-CoV-2-NLuc; [2]) | pIC50 [1, 3] | pEC50 (SARS-CoV-2-NLuc; read-out: MPro EC50) | pIC50 [1, 4] | pEC50 (SARS-CoV-2-NLuc; [5]) |
| --- | --- | --- | --- | --- | --- |
| COc1ccc(Cl)c(-c2cc3[nH]c(=O)n(-c4cncc5sc(C#N)c(C)c45)c(=O)c3s2)c1 [Example 1050, 4-(6-(2-chloro-5-methoxyphenyl)-2,4-dioxo-1,4-dihydrothieno[3,2-d]pyrimidin-3(2H)-yl)-3-methylthieno[2,3-c]pyridine-2-carbonitrile] | 7.59 | 8.05 | – | – | – |
| COc1cc(-c2cc3[nH]c(=O)n(-c4cncc5ccn(C)c45)c(=O)c3s2)c(Cl)cc1F (single isomer, unassigned) [Example 957, 6-(2-chloro-4-fluoro-5-methoxyphenyl)-3-(1-methyl-1H-pyrrolo[3,2-c]pyridin-7-yl)thieno[3,2-d]pyrimidine-2,4(1H,3H)-dione] | – | 8.65 | 8.58 | – | – |
| N#Cc1ccccc1-c1nc2[nH]c(=O)n(-c3cncc4ccccc34)c(=O)c2s1 [Example 118, 2-(6-(isoquinolin-4-yl)-5,7-dioxo-4,5,6,7-tetrahydrothiazolo[4,5-d]pyrimidin-2-yl)benzonitrile] | 4.93 | – | – | 6.54 | – |
| COc1cc(-c2cc3c(s2)c(=O)n(-c2cc(C)cnn2)c(=O)n3CCC#N)c(C#N)cc1F [Example 812] | 7.05 | 8.05 | – | – | – |
| COc1cnc(C#N)c(-c2cc3c(s2)c(=O)n(-c2cncc4ccccc24)c(=O)n3CCC#N)c1 (single isomer, unassigned) [Example 1093, 3-(1-(2-cyanoethyl)-3-(isoquinolin-4-yl)-2,4-dioxo-1,2,3,4-tetrahydrothieno[3,2-d]pyrimidin-6-yl)-5-methoxypicolinonitrile] | – | 6.98 | 6.80 | – | – |
| Cc1cc(-n2c(=O)c3sc(-c4ccccc4Cl)cc3n(CCC#N)c2=O)cnc1F [Example 825] | – | 7.47 | – | – | 7.11 |
| COc1cc(-c2cc3[nH]c(=O)n(-c4cncc5cc(C(=O)N(C)C)sc45)c(=O)c3s2)c(Cl)cc1F [Example 1010, 7-[6-(2-chloro-4-fluoro-5-methoxy-phenyl)-2,4-dioxo-1H-thieno[3,2-d]pyrimidin-3-yl]-N,N-dimethyl-thieno[3,2-c]pyridine-2-carboxamide] | – | 8.48 | – | – | 7.16 |
| COc1cc(F)ccc1-c1cc2[nH]c(=O)n(-c3cncc4ccccc34)c(=O)c2s1 [Example 178] | – | – | – | 6.66 | 6.71 |
| Cn1ncc(-c2cccc(Cl)c2-c2ccc3c(=O)n(-c4cncc5ccccc45)c(=O)[nH]c3c2)c1C(F)F [Example 311] | – | – | – | 7.34 | 7.60 |
| COc1cc(-c2cc3c(s2)c(=O)n(-c2cnc(F)c(C)c2)c(=O)n3CCC#N)c(C#N)cc1F [Example 780] | – | 7.76 | – | – | 7.27 |
| COc1cc(-c2cc3c(s2)c(=O)n(-c2cncc4c(F)cccc24)c(=O)n3CCC#N)c(Cl)cc1F [Example 950] | – | 8.35 | – | – | 7.93 |
| Cc1c2c(-n3c(=O)c4sc(-c5cc(F)c(F)cc5Cl)cc4n(CCC#N)c3=O)cncc2nn1C [Example 798] | 6.86 | 7.41 | – | – | – |
| COc1ccc(Cl)c(-c2cc3c(s2)c(=O)n(-c2cncc4ccccc24)c(=O)n3CC#N)c1 (atropisomer, axis not shown) [Example 702] | – | > 8.53 | – | – | 8.62 |
| N#CCCn1c(=O)n(-c2cncc3ccccc23)c(=O)c2sc(-c3ccccc3C#N)cc21 (single isomer, unassigned) [Example 963, 2-(1-(2-cyanoethyl)-3-(isoquinolin-4-yl)-2,4-dioxo-1,2,3,4-tetrahydrothieno[3,2-d]pyrimidin-6-yl)benzonitrile] | – | 8.10 | 7.84 | – | – |
| COc1ccc(Cl)c(-c2cc3[nH]c(=O)n(-c4cncc5ccccc45)c(=O)c3cc2OC)c1 [Example 309] | – | – | – | 7.24 | 7.57 |
| CC(C)(O)CNc1ccc2cncc(-n3c(=O)[nH]c4cc(-c5ccccc5Cl)sc4c3=O)c2c1 [Example 389] | – | – | – | 7.57 | 6.88 |
| O=c1[nH]c2nc(-c3ccccc3Cl)ccc2c(=O)n1-c1cncc2ccccc12 [Example 32] | 5.15 | – | – | 5.64 | – |
| COc1cccc(C)c1-c1ccc2c(=O)n(-c3cncc4ccccc34)c(=O)[nH]c2c1 [Example 89] | – | – | – | 6.07 | 6.05 |
| COc1cc(-c2cc3[nH]c(=O)n(-c4cncc5ccccc45)c(=O)c3s2)c(C)cc1Cl [Example 716] | – | 7.80 | – | – | 7.73 |
| NC(=O)c1ccccc1-c1ccc2c(=O)n(-c3cncc4ccccc34)c(=O)[nH]c2c1 [Example 66, 2-(3-(isoquinolin-4-yl)-2,4-dioxo-1,2,3,4-tetrahydroquinazolin-7-yl)benzamide] | – | – | – | 5.70 | < 4.30 |
| COc1cc(-c2cc3c(s2)c(=O)n(-c2cncc4ncc(C)n24)c(=O)n3CCC#N)c(Cl)cc1F [Example 952] | – | 7.96 | – | – | 7.79 |

| SMILES | pEC50 (SARS-CoV-2-NLuc; [2]) | pIC50 [1, 3] | pEC50 (SARS-CoV-2-NLuc; read-out: MPro EC50) | pIC50 [1, 4] | pEC50 (SARS-CoV-2-NLuc; [5]) |
| --- | --- | --- | --- | --- | --- |
| Cc1cccc(-c2cc3[nH]c(=O)n(-c4cncc5ccccc45)c(=O)c3s2)c1Cl [Example 11] | – | – | – | 5.32 | 6.20 |
| Cn1ncc2cncc(-n3c(=O)[nH]c4cc(-c5ccccc5Cl)sc4c3=O)c21 [Example 495] | – | 8.19 | – | – | 7.76 |
| COc1cc(-c2cc3c(s2)c(=O)n(-c2cncc4ccccc24)c(=O)n3CC2(C#N)CC2)c(Cl)cc1F [Example 631, 1-[[6-(2-chloro-4-fluoro-5-methoxy-phenyl)-3-(4-isoquinolyl)-2,4-dioxo-thieno[3,2-d]pyrimidin-1-yl]methyl]cyclopropanecarbonitrile] | 8.30 | 7.90 | – | – | – |
| COc1cc(-c2cc3c(s2)c(=O)n(-c2cncc4cnn(C)c24)c(=O)n3C2CC2C#N)c(Cl)cc1F (stereo not shown) [Example 1005, 2-(6-(2-chloro-4-fluoro-5-methoxyphenyl)-3-(1-methyl-1H-pyrazolo[4,3-c]pyridin-7-yl)-2,4-dioxo-3,4-dihydrothieno[3,2-d]pyrimidin-1(2H)-yl)cyclopropane-1-carbonitrile] | – | 7.41 | 7.28 | – | – |
| COc1cnc(Cl)c(-c2cc3c(s2)c(=O)n(-c2cncc4cccc(F)c24)c(=O)n3CCC#N)c1 [Example 1083, 3-(6-(2-chloro-5-methoxypyridin-3-yl)-3-(5-fluoroisoquinolin-4-yl)-2,4-dioxo-3,4-dihydrothieno[3,2-d]pyrimidin-1(2H)-yl)propanenitrile] | 7.44 | 7.95 | – | – | – |
| COc1cc(-c2cc3c(s2)c(=O)n(-c2cncc(C#N)c2)c(=O)n3CCC#N)c(Cl)cc1F [Example 1040, 5-(6-(2-chloro-4-fluoro-5-methoxyphenyl)-1-(2-cyanoethyl)-2,4-dioxo-1,4-dihydrothieno[3,2-d]pyrimidin-3(2H)-yl)nicotinonitrile] | 8.02 | 8.33 | – | – | – |
| COc1cc(-c2cc3c(s2)c(=O)n(-c2cncc4cnn(C)c24)c(=O)n3CCS(C)(=O)=O)c(Cl)cc1F [Example 1067, 6-(2-chloro-4-fluoro-5-methoxy-phenyl)-3-(1-methylpyrazolo[4,3-c]pyridin-7-yl)-1-(2-methylsulfonylethyl)thieno[3,2-d]pyrimidine-2,4-dione] | 7.24 | 7.56 | – | – | – |
| COc1ccc(Cl)c(-c2cc3[nH]c(=O)n(-c4cncc(CCC(=O)N5CCOCC5)c4)c(=O)c3s2)c1 [Example 575, 6-(2-chloro-5-methoxy-phenyl)-3-[5-(3-morpholino-3-oxo-propyl)-3-pyridyl]-1H-thieno[3,2-d]pyrimidine-2,4-dione] | 6.63 | 8.18 | – | – | – |
| COc1ccc(Cl)c(-c2cc3[nH]c(=O)n(-c4cncc5c4cnn5C)c(=O)c3s2)c1 [Example 497] | 7.72 | 8.20 | – | – | – |
| N#CCCn1c(=O)n(-c2cncc3cccc(F)c23)c(=O)c2sc(-c3ccccc3C#N)cc21 [Example 1085] | – | 7.64 | – | – | 7.38 |
| O=c1[nH]c2cc(-c3ccccc3Cl)sc2c(=O)n1-c1cnccc1N1CCN(C2COC2)CC1 [Example 117, 6-(2-chlorophenyl)-3-(4-(4-(oxetan-3-yl)piperazin-1-yl)pyridin-3-yl)thieno[3,2-d]pyrimidine-2,4(1H,3H)-dione] | 6.20 | – | – | 6.81 | – |
| COc1cc(-c2cc3c(s2)c(=O)n(-c2cncc(Cl)c2C)c(=O)n3CCC#N)c(C#N)cc1F [Example 806] | 8.16 | 8.29 | – | – | – |
| COc1cc(-c2nc3c(s2)c(=O)n(-c2cncc4ccccc24)c(=O)n3CCC#N)c(Cl)cc1F [Example 903] | – | 8.07 | – | – | 7.88 |
| CC(C)n1cc(-c2cccc(Cl)c2-c2ccc3c(=O)n(-c4cncc5ccccc45)c(=O)[nH]c3c2)c(C(F)(F)F)n1 [Example 282] | – | – | – | 6.83 | 7.14 |
| Cn1cc(-c2cccc(Cl)c2-c2cc3[nH]c(=O)n(-c4cncc5ccccc45)c(=O)c3s2)c(C2CC2)n1 [Example 527] | – | 8.49 | – | – | 8.84 |
| COc1ccc(Cl)c(-c2cc3[nH]c(=O)n(-c4cncc5ccc(N6CCn7c(nnc7C(F)(F)F)C6)cc45)c(=O)c3s2)c1 [Example 603] | – | 8.56 | – | – | 7.84 |
| COc1cc(-c2cc3c(s2)c(=O)n(-c2cncc(F)c2C)c(=O)n3CCC#N)c(Cl)cc1F (single isomer, unassigned) [Example 1027, 3-[6-(2-chloro-4-fluoro-5-methoxy-phenyl)-3-(5-fluoro-4-methyl-3-pyridyl)-2,4-dioxo-thieno[3,2-d]pyrimidin-1-yl]propanenitrile] | – | 7.21 | 7.18 | – | – |
| COc1cc(-c2cc3c(s2)c(=O)n(-c2cncc(N(C)C)c2)c(=O)n3CCC#N)c(Cl)cc1F [Example 874] | – | 7.38 | – | – | 6.69 |
| COc1cc(Cl)c(-c2cc3[nH]c(=O)n(-c4cncc5ccccc45)c(=O)c3s2)cc1Cl [Example 724] | – | 8.03 | – | – | 7.77 |
| COc1cc(-c2cc3c(s2)c(=O)n(-c2cncc4nnn(C)c24)c(=O)n3CCC#N)c(C#N)cc1F [Example 878] | – | 7.80 | – | – | 7.05 |
